Laboratory results: PubChem BioAssay AID246 (DTP/NCI, 2004)
Several values for one entry are separate records, joined by “and”; a condition that tells them apart may be missing. Equal values may be shown once. Inconclusive results and toxic doses are left out. Numbered stars: 1 amine (or outer) side, 2 acyl side, 3 side chain; on linkers, the order of the positions; unused ones are H or OH. Bridge positions count the residues as written; N and C are the ends. Square brackets hold non-standard residues; d marks the D form. Peptide text beside a SMILES is read from it. I, II: the chains in the order shown. Actinocin(9to1) = Cc1c2oc3c(C)ccc(C(=O)[*:1])c3nc-2c(C(=O)[*:2])c(N)c1=O; aThr = C[C@H](O)[C@H](N)C(=O)O; NMeV = CN[C@H](C(=O)O)C(C)C; Sar = CNCC(=O)O

System: BDF1 mice, P1081 chloroleukemia ip, survival T/C
Test: NCI In Vivo Anticancer Drug Screen. Data for tumor model P1081 Chloroleukemia (intraperitoneal) in B6D2F1 (BDF1) mice
Conditions: endpoint: mean survival time, higher = longer survival
Method: The antitumor activity of compounds was measured in mice bearing transplantable tumors. Survival or tumor size were measured and the results are expressed as the measurement made in the treated group (T) divided by the measurement made in the vehicle treated control group (C). The tumor model used in this assay is P1081 Chloroleukemia (intraperitoneal) in B6D2F1 (BDF1) mice

[1] = dose: 0.06 mg/kg/injection, schedule: Q01DX Z (ip), vehicle: saline
[2] = dose: 0.25 mg/kg/injection, schedule: Q01DX Z (ip), vehicle: saline
[3] = dose: 0.5 mg/kg/injection, schedule: Q01DX Z (ip), vehicle: saline
[4] = dose: 1.0 mg/kg/injection, schedule: Q01DX Z (ip), vehicle: saline
[5] = dose: 62.5 mg/kg/injection, schedule: Q01DX010 (ip), vehicle: saline
[6] = dose: 125.0 mg/kg/injection, schedule: Q01DX010 (ip), vehicle: saline
[7] = dose: 125.0 mg/kg/injection, schedule: Q01DX Z (ip), vehicle: carboxymethylcellulose (CMC)
[8] = dose: 250.0 mg/kg/injection, schedule: Q01DX010 (ip), vehicle: saline
[9] = dose: 250.0 mg/kg/injection, schedule: Q01DX Z (ip), vehicle: carboxymethylcellulose (CMC)
[10] = dose: 500.0 mg/kg/injection, schedule: Q01DX010 (ip), vehicle: saline
[11] = dose: 500.0 mg/kg/injection, schedule: Q01DX Z (ip), vehicle: carboxymethylcellulose (CMC)
[12] = dose: 12.5 mg/kg/injection, schedule: Q01DX Z (ip), vehicle: carboxymethylcellulose (CMC)
[13] = dose: 25.0 mg/kg/injection, schedule: Q01DX Z (ip), vehicle: carboxymethylcellulose (CMC)
[14] = dose: 62.5 mg/kg/injection, schedule: Q01DX Z (ip), vehicle: carboxymethylcellulose (CMC)

C1CN1c1nc(N2CC2)nc(N2CC2)n1
T/C (dose: 0.03 mg/kg/injection, schedule: Q01DX Z (ip), vehicle: saline): 92 % of control
T/C [1]: 107 % of control
T/C (dose: 0.13 mg/kg/injection, schedule: Q01DX010 (ip), vehicle: saline): 95 % of control and 100 % of control
T/C (dose: 0.25 mg/kg/injection, schedule: Q01DX010 (ip), vehicle: saline): 94 % of control
T/C [2]: 122 % of control and 102 % of control
T/C (dose: 0.5 mg/kg/injection, schedule: Q01DX010 (ip), vehicle: saline): 109 % of control
T/C [3]: 121 % of control and 90 % of control
T/C (dose: 1.0 mg/kg/injection, schedule: Q01DX010 (ip), vehicle: saline): 88 % of control
T/C [4]: 102 % of control
T/C (dose: 24.0 micrograms/kg/injection, schedule: Q01DX Z (ip), vehicle: saline): 89 % of control
T/C (dose: 48.0 micrograms/kg/injection, schedule: Q01DX Z (ip), vehicle: saline): 96 % of control
T/C (dose: 95.0 micrograms/kg/injection, schedule: Q01DX Z (ip), vehicle: saline): 98 % of control
T/C (dose: 190.0 micrograms/kg/injection, schedule: Q01DX Z (ip), vehicle: saline): 89 % of control

S=P(N1CC1)(N1CC1)N1CC1
T/C (dose: 0.37 mg/kg/injection, schedule: Q01DX Z (ip), vehicle: saline): 98 % of control
T/C (dose: 0.75 mg/kg/injection, schedule: Q01DX Z (ip), vehicle: saline): 96 % of control
T/C (dose: 1.5 mg/kg/injection, schedule: Q01DX Z (ip), vehicle: saline): 109 % of control

O=c1cn[nH]c(=O)[nH]1
T/C (dose: 4.0 mg/kg/injection, schedule: Q01DX Z (ip), vehicle: carboxymethylcellulose (CMC)): 102 % of control
T/C (dose: 8.0 mg/kg/injection, schedule: Q01DX Z (ip), vehicle: carboxymethylcellulose (CMC)): 93 % of control
T/C [5]: 95 % of control
T/C [6]: 95 % of control
T/C [7]: 123 % of control and 94 % of control
T/C [8]: 90 % of control and 95 % of control
T/C [9]: 117 % of control
T/C [10]: 110 % of control and 100 % of control
T/C [11]: 117 % of control
T/C (dose: 1000.0 mg/kg/injection, schedule: Q01DX Z (ip), vehicle: carboxymethylcellulose (CMC)): 97 % of control

O=C(Nc1ccc(C2=NCCCN2)cc1)c1ccc(NC(=O)c2ccc(C3=NCCCN3)cc2)cc1
T/C (dose: 1.95 mg/kg/injection, schedule: Q01DX Z (ip), vehicle: water): 123 % of control
T/C (dose: 3.9 mg/kg/injection, schedule: Q01DX Z (ip), vehicle: carboxymethylcellulose (CMC)): 157 % of control
T/C (dose: 3.9 mg/kg/injection, schedule: Q01DX Z (ip), vehicle: water): 193 % of control
T/C (dose: 7.8 mg/kg/injection, schedule: Q01DX Z (ip), vehicle: water): 202 % of control
T/C (dose: 15.6 mg/kg/injection, schedule: Q01DX Z (ip), vehicle: carboxymethylcellulose (CMC)): 92 % of control
T/C (dose: 15.6 mg/kg/injection, schedule: Q01DX Z (ip), vehicle: water): 86 % of control

CN(Cc1cnc2nc(N)nc(N)c2n1)c1c(Cl)cc(C(=O)NC(CCC(=O)O)C(=O)O)cc1Cl (centres undefined)
T/C [12]: 101 % of control
T/C [13]: 102 % of control

CSCS(=O)C[C@H](CO)NC(=O)/C=C/c1c(C)[nH]c(=O)[nH]c1=O (some centres undefined)
T/C [1]: 92 % of control
T/C (dose: 0.12 mg/kg/injection, schedule: Q01DX Z (ip), vehicle: saline): 93 % of control
T/C [2]: 107 % of control and 97 % of control
T/C [3]: 92 % of control and 102 % of control
T/C [4]: 90 % of control

O=c1[nH]c(=O)n(C2CC(O)C(CO)O2)cc1Br (centres undefined)
T/C (dose: 16.0 mg/kg/injection, schedule: Q01DX Z (ip), vehicle: carboxymethylcellulose (CMC)): 86 % of control
T/C (dose: 31.0 mg/kg/injection, schedule: Q01DX Z (ip), vehicle: carboxymethylcellulose (CMC)): 107 % of control and 88 % of control
T/C [14]: 106 % of control and 99 % of control
T/C [7]: 88 % of control
T/C [9]: 101 % of control

COc1ccc2c(c1OC)C(=O)O[C@@H]2[C@H]1c2c(cc3c(c2OC)OCO3)CCN1C
T/C (dose: 31.3 mg/kg/injection, schedule: Q01DX010 (ip), vehicle: saline): 88 % of control and 90 % of control
T/C [5]: 88 % of control and 95 % of control
T/C [6]: 88 % of control and 90 % of control
T/C [8]: 88 % of control and 90 % of control

CN(N=O)C(=O)NC(C=O)C(O)C(O)C(O)CO (centres undefined)
T/C (dose: 6.25 mg/kg/injection, schedule: Q01DX Z (ip), vehicle: carboxymethylcellulose (CMC)): 93 % of control
T/C [12]: 102 % of control
T/C [13]: 112 % of control
T/C (dose: 50.0 mg/kg/injection, schedule: Q01DX Z (ip), vehicle: carboxymethylcellulose (CMC)): 100 % of control
T/C (dose: 50.0 mg/kg/injection, schedule: Q01DX Z (ip), vehicle: saline): 115 % of control
T/C (dose: 100.0 mg/kg/injection, schedule: Q01DX Z (ip), vehicle: saline): 107 % of control
T/C (dose: 200.0 mg/kg/injection, schedule: Q01DX Z (ip), vehicle: saline): 88 % of control

Cc1c2oc3c(C)ccc(C(=O)N[C@@H]4C(=O)N[C@H](C(C)C)C(=O)N5CCC[C@H]5C(=O)N(C)CC(=O)N(C)[C@@H](C(C)C)C(=O)O[C@H]4C)c3nc-2c(C(=O)N[C@@H]2C(=O)N[C@H](C(C)C)C(=O)N3CCC[C@H]3C(=O)N(C)CC(=O)N(C)[C@@H](C(C)C)C(=O)O[C@H]2C)c(N)c1=O (I: [aThr][dV]P[Sar][NMeV] / II: [aThr][dV]P[Sar][NMeV]; ester I:1-I:C, II:1-II:C; linker I:N-II:N via Actinocin(9to1))
T/C (dose: 0.7 micrograms/kg/injection, schedule: Q01DX Z (ip), vehicle: saline): 103 % of control
T/C (dose: 1.5 micrograms/kg/injection, schedule: Q01DX Z (ip), vehicle: saline): 94 % of control
T/C (dose: 6.2 micrograms/kg/injection, schedule: Q01DX Z (ip), vehicle: saline): 110 % of control
T/C (dose: 12.5 micrograms/kg/injection, schedule: Q01DX010 (ip), vehicle: other): 155 % of control
T/C (dose: 25.0 micrograms/kg/injection, schedule: Q01DX010 (ip), vehicle: other): 190 % of control and 205 % of control
T/C (dose: 25.0 micrograms/kg/injection, schedule: Q01DX Z (ip), vehicle: saline): 119 % of control
T/C (dose: 50.0 micrograms/kg/injection, schedule: Q01DX010 (ip), vehicle: other): 180 % of control and 245 % of control
T/C (dose: 50.0 micrograms/kg/injection, schedule: Q01DX Z (ip), vehicle: saline): 104 % of control
T/C (dose: 100.0 micrograms/kg/injection, schedule: Q01DX010 (ip), vehicle: other): 105 % of control
T/C (dose: 100.0 micrograms/kg/injection, schedule: Q01DX Z (ip), vehicle: saline): 102 % of control

Nc1nc2n[nH]nc2c(=O)[nH]1
T/C (dose: 50.0 mg/kg/injection, schedule: Q01DX Z (ip), vehicle: other): 175 % of control
T/C (dose: 100.0 mg/kg/injection, schedule: Q01DX Z (ip), vehicle: other): 183 % of control

CC(=O)N(C)C
T/C [5]: 100 % of control
T/C [6]: 90 % of control and 95 % of control
T/C [8]: 90 % of control and 95 % of control
T/C [10]: 90 % of control and 95 % of control

O=[n+]1c2c(n([O-])c3ccccc31)-c1cccc3cccc-2c13
T/C (dose: 6.25 mg/kg/injection, schedule: Q01DX010 (ip), vehicle: saline): 100 % of control
T/C (dose: 12.5 mg/kg/injection, schedule: Q01DX010 (ip), vehicle: saline): 100 % of control
T/C (dose: 25.0 mg/kg/injection, schedule: Q01DX010 (ip), vehicle: saline): 88 % of control and 90 % of control
T/C (dose: 50.0 mg/kg/injection, schedule: Q01DX010 (ip), vehicle: saline): 88 % of control and 90 % of control

NC(=O)c1cn(C2OC(CO)C(O)C2O)c2ncnc(N)c12 (centres undefined)
T/C (dose: 0.25 mg/kg/injection, schedule: Q01DX Z (ip), vehicle: carboxymethylcellulose (CMC)): 102 % of control

CN1CC[C@]23c4c5ccc(O)c4O[C@H]2C(=O)CC[C@H]3[C@H]1C5
T/C (dose: 2.0 mg/kg/injection, schedule: Q01DX010 (ip), vehicle: saline): 105 % of control
T/C (dose: 4.0 mg/kg/injection, schedule: Q01DX010 (ip), vehicle: saline): 90 % of control and 100 % of control
T/C (dose: 8.0 mg/kg/injection, schedule: Q01DX010 (ip), vehicle: saline): 90 % of control and 105 % of control
T/C (dose: 16.0 mg/kg/injection, schedule: Q01DX010 (ip), vehicle: saline): 90 % of control and 100 % of control

O=c1[nH]c(=O)n(C2CC(O)C(CO)O2)cc1I (centres undefined)
T/C [14]: 103 % of control
T/C [7]: 108 % of control
T/C [9]: 118 % of control and 92 % of control
T/C [11]: 114 % of control
